Converted amounts (≈) assume the structure as drawn.
Columns and labels:
[1] = Inhibition of ligand binding to mTORC1/mTORC2 in human HuT78 cells after 2 hrs by kinobead competition binding assay; format: cell-based
[2] = Lipophilicity, logP of the compound by reversed phase column chromatography; format: physicochemical
[3] = molecular target: Phosphatidylinositol 4,5-bisphosphate 3-kinase catalytic subunit alpha isoform (Homo sapiens, UniProt P42336)
Description: Inhibition of PI3Kalpha (unknown origin) using PIP2 as substrate preincubated for 15 mins followed by substrate addition and measured after 1 hr by HTRF assay

[4] = molecular target: T1, Phosphatidylinositol 4,5-bisphosphate 3-kinase catalytic subunit delta isoform (Homo sapiens, UniProt O00329); experiment: Inhibition of PI3Kdelta (unknown origin) using PIP2 as substrate preincubated for 15 mins followed by substrate addition and measured after 1 hr by HTRF assay
T1 sequence (O00329 whole entry): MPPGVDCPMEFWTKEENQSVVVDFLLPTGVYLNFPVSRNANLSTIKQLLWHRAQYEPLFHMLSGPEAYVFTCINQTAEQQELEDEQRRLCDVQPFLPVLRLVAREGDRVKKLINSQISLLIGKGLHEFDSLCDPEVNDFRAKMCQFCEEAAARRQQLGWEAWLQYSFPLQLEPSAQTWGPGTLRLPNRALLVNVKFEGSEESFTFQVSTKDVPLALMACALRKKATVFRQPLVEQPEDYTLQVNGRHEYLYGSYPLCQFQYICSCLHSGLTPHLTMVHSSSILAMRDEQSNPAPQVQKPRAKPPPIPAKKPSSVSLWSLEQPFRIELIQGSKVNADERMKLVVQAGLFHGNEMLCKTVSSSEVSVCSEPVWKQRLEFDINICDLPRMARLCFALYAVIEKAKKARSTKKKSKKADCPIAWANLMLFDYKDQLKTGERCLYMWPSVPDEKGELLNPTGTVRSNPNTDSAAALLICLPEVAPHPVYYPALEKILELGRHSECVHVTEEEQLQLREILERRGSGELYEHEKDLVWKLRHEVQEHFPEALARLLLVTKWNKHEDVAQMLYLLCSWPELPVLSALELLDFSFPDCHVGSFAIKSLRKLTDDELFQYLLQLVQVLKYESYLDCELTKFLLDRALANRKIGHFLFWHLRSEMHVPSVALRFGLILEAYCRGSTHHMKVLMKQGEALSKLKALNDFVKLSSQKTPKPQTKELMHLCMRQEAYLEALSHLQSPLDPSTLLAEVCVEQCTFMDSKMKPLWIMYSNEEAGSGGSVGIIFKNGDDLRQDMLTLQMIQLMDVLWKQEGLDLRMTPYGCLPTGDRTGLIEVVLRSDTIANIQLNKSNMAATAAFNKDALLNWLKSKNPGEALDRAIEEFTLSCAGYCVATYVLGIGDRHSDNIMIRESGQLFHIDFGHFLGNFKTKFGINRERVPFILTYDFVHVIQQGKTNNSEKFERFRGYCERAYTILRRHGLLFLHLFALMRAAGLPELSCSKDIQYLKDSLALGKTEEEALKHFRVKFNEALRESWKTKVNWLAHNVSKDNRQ

[5] = Inhibition of PI3K/AKT/mTOR in human lung fibroblasts assessed as reduction in AKT phosphorylation at serine473 residue preincubated for 1 hr followed by PDGF-BB stimulation and measured after 10 mins by electrochemiluminescence method
[6] = Kinetic solubility of the compound in pH 7.4 phosphate buffered saline measured after 1 hr; format: physicochemical; details: read-out: Kinetic_solubility
[7] = Intrinsic clearance in rat microsomes; format: ADME, Microsome
[8] = Intrinsic clearance in human microsomes; format: ADME, Microsome

Chain of Phosphatidylinositol 4,5-bisphosphate 3-kinase catalytic subunit alpha isoform (P42336 whole entry, canonical isoform): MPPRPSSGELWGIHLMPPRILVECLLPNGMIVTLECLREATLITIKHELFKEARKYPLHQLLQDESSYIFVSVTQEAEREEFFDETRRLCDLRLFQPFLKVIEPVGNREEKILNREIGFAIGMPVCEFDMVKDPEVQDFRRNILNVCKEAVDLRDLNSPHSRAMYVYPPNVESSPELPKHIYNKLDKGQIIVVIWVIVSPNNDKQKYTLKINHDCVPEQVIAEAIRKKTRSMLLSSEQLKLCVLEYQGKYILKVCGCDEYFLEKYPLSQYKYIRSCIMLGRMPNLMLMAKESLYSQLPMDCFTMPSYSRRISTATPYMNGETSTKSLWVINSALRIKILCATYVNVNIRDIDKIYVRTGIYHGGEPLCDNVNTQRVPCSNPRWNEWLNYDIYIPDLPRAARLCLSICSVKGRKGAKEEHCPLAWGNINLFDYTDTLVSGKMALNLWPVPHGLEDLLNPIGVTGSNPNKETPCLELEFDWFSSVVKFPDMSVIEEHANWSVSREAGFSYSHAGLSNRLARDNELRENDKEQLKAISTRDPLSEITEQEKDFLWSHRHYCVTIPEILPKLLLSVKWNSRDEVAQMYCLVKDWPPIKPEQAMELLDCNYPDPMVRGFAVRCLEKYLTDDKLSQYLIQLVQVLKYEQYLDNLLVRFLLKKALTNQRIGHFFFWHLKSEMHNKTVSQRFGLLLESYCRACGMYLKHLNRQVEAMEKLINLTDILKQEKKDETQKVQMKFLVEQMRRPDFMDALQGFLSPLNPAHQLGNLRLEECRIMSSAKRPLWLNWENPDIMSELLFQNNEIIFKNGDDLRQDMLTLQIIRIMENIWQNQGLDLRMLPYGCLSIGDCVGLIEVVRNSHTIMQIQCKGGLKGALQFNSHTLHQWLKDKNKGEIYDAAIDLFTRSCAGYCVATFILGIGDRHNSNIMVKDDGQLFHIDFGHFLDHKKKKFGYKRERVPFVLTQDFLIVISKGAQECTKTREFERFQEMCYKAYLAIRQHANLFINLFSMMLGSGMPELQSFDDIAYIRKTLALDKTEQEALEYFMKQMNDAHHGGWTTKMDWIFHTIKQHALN

SMILES | pIC50 [1] | logP [2] | IC50 [3] [µM] | IC50 [4] [µM] | solubility kinetic at 1 h [6] [µg/mL] | CL [7] [mL/min/g] | CL [8] [mL/min/g] | IC50 [5] [nM]
CCNC(=O)Nc1ccc(-c2nc(CS(C)(=O)=O)cc(N3CCOC[C@@H]3C)n2)cc1 | 7.1 | 3.2 | 15.8 | 20 | 212 (≈ 489 µM) |  |  | 316
CCNC(=O)Nc1ccc(-c2nc(CS(C)(=O)=O)cc(N3CCOCC3)n2)cc1 | 7.3 | 2.7 |  |  |  |  |  | 1260
CNCC(=O)Nc1ccc(-c2nc(N3CCOC[C@@H]3C)cc(C(C)(C)S(C)(=O)=O)n2)cc1 | 8 | 4.1 | 15.8 | 1.58 | 198 (≈ 429 µM) |  |  | 50.1
CNCC(=O)Nc1ccc(-c2nc(C(C)(C)S(C)(=O)=O)cc([C@@]34CCOC[C@@H]3C4)n2)cc1 | 7.3 | 4.3 | 25.1 | 1.26 | 257 (≈ 560 µM) |  |  | 158
CNCC(=O)Nc1ccc(-c2nc(CS(C)(=O)=O)cc(N3CCOC[C@@H]3C)n2)cc1 | 7.7 | 2.6 | 25.1 | 12.6 | 90 (≈ 208 µM) |  |  | 501
C[C@H]1COCCN1c1ccnc(-c2cccc(O)c2)n1 | 5.7 | 3.3 | 1.58 | 1 | 119 (≈ 439 µM) |  |  | 3980
Oc1cccc(-c2nccc(C3CCOCC3)n2)c1 | 4.5 | 3.3 | 15.8 | 7.94 | 100 (≈ 390 µM) |  |  | 20000
CCNC(=O)Nc1ccc(-c2nccc(N3CCOC[C@@H]3C)n2)cc1 | 6.1 | 3.4 | 6.31 | 5.01 | 136 (≈ 398 µM) | 2 | 1.2 | 1260
CCNC(=O)Nc1ccc(-c2nccc(C34CCOCC3C4)n2)cc1 (centres undefined) | 5.8 | 4 | 12.6 | 5.01 | 111 (≈ 328 µM) |  |  | 3160
CCNC(=O)Nc1ccc(-c2nc(C(C)(C)S(C)(=O)=O)cc([C@]34CCOC[C@H]3C4)n2)cc1 | 6.9 | 4.7 | > 31.6 | 25.1 | 74 (≈ 161 µM) |  |  | 63.1
CCNC(=O)Nc1ccc(-c2nccc(N3CCOCC3)n2)cc1 | 6.5 | 2.7 | 12.6 | 10 | 109 (≈ 333 µM) |  |  | 3980
C[C@H]1COCCN1c1cc(C(C)(C)S(C)(=O)=O)nc(-c2cccc(O)c2)n1 | 5.7 | 4.4 | 3.16 | 3.16 | 121 (≈ 309 µM) |  |  | 1260
CCNC(=O)Nc1ccc(-c2nccc([C@@]34CCOC[C@@H]3C4)n2)cc1 | 5.5 | 3.9 | > 31.6 | 25.1 | 127 (≈ 375 µM) | 16.7 | 1.4 | 3160
Oc1cccc(-c2nccc(N3CCOCC3)n2)c1 | 5.9 | 2.7 | 0.501 | 0.251 | 107 (≈ 416 µM) |  |  | 2000
CCNC(=O)Nc1ccc(-c2nc(C(C)(C)S(C)(=O)=O)cc([C@@]34CCOC[C@@H]3C4)n2)cc1 | 6.6 | 4.7 | 25.1 | 15.8 | 78 (≈ 170 µM) |  |  | 158
CCNC(=O)Nc1ccc(-c2nccc(C3=CCOCC3)n2)cc1 | 6 | 3.6 | 20 | 15.8 | 24 (≈ 74 µM) |  |  | 3980
Oc1cccc(-c2nccc(C3=CCOCC3)n2)c1 | 5.7 | 3.6 | 3.16 | 1.26 | 113 (≈ 444 µM) |  |  | 3160
CC(C)(c1cc([C@@]23CCOC[C@@H]2C3)nc(-c2ccc(NC(=S)NCCO)cc2)n1)S(C)(=O)=O | 8.2 | 3.9 | 7.94 | 25.1 | 145 (≈ 296 µM) |  |  | 79.4
CCNC(=O)Nc1ccc(-c2nc(N3CCOC[C@@H]3C)cc(C(C)(C)S(C)(=O)=O)n2)cc1 | 7.3 | 4.4 | 7.94 | 7.94 | 130 (≈ 282 µM) |  |  | 50.1

Continued, in another order:

pIC50 [1] | logP [2] | IC50 [3] [µM] | IC50 [4] [µM] | solubility kinetic at 1 h [6] [µg/mL] | CL [7] [mL/min/g] | CL [8] [mL/min/g] | SMILES | IC50 [5] [nM]
6.7 | 3.3 | 1 | 1 | 113 (≈ 311 µM) |  |  | C[C@H]1COCCN1c1cc(CS(C)(=O)=O)nc(-c2cccc(O)c2)n1 | 2510
5.9 | 3.7 | 7.94 | 3.98 | 145 (≈ 402 µM) |  |  | CS(=O)(=O)Cc1cc([C@@]23CCOC[C@@H]2C3)nc(-c2cccc(O)c2)n1 | 5010
5.5 | 4.8 | 15.8 | 10 | 135 (≈ 348 µM) |  |  | CC(C)(c1cc([C@]23CCOC[C@H]2C3)nc(-c2cccc(O)c2)n1)S(C)(=O)=O | 1260
7 | 3.6 | > 31.6 | 7.94 | 96 (≈ 223 µM) |  |  | CCNC(=O)Nc1ccc(-c2nc(CS(C)(=O)=O)cc([C@]34CCOC[C@H]3C4)n2)cc1 | 501
< 5.4 | 4.8 | 10 | 7.94 | 148 (≈ 381 µM) |  |  | CC(C)(c1cc([C@@]23CCOC[C@@H]2C3)nc(-c2cccc(O)c2)n1)S(C)(=O)=O | 5010
6.1 | 3.6 | > 31.6 | 25.1 | 77 (≈ 179 µM) |  |  | CCNC(=O)Nc1ccc(-c2nc(CS(C)(=O)=O)cc([C@@]34CCOC[C@@H]3C4)n2)cc1 | 1580
4.8 | 4.1 | 6.31 | 3.98 | 102 (≈ 380 µM) |  |  | Oc1cccc(-c2nccc(C34CCOCC3C4)n2)c1 (centres undefined) | 7940
5.1 | 4 | 2.51 | 1.26 | 141 (≈ 525 µM) |  |  | Oc1cccc(-c2nccc([C@]34CCOC[C@H]3C4)n2)c1 | 7940
< 3 | 4 | 6.31 | 3.16 | 123 (≈ 458 µM) |  |  | Oc1cccc(-c2nccc([C@@]34CCOC[C@@H]3C4)n2)c1 | 10000
7.1 | 3.1 | > 31.6 | 15.8 | 167 (≈ 388 µM) |  |  | CNCC(=O)Nc1ccc(-c2nc(CS(C)(=O)=O)cc([C@@]34CCOC[C@@H]3C4)n2)cc1 | 1260
7.4 | 3.1 | > 31.6 | > 31.6 | 158 (≈ 367 µM) |  |  | CNCC(=O)Nc1ccc(-c2nc(CS(C)(=O)=O)cc([C@]34CCOC[C@H]3C4)n2)cc1 | 794
5.8 | 3.7 | 20 | 15.8 | 75 (≈ 208 µM) |  |  | CS(=O)(=O)Cc1cc([C@]23CCOC[C@H]2C3)nc(-c2cccc(O)c2)n1 | 3160
6.4 | 3.3 | 6.31 | 1.58 | 27 (≈ 77.9 µM) |  |  | CS(=O)(=O)Cc1cc(C2=CCOCC2)nc(-c2cccc(O)c2)n1 | 794
7.6 | 4.3 | > 31.6 | 12.6 | 217 (≈ 473 µM) |  |  | CNCC(=O)Nc1ccc(-c2nc(C(C)(C)S(C)(=O)=O)cc([C@]34CCOC[C@H]3C4)n2)cc1 | 100

— ChEMBL document CHEMBL4311944, “Discovery of 3-Oxabicyclo[4.1.0]heptane, a Non-nitrogen Containing Morpholine Isostere, and Its Application in Novel Inhibitors of the PI3K-AKT-mTOR Pathway” (J Med Chem, 2019)
